EC50 data for 22 molecules are collected here from US9682955B2, “Quinazoline derivatives useful as CB-1 inverse agonists” (Janssen Pharmaceutica NV, priority 2014, dated 2017).

In assay [1] the target is Human CB2R (Cannabanoid receptor 2) (Homo sapiens (Human), UniProt P34972). Kind of assay: CB-2 in vitro cAMP assay (HTRF). The class given is cell-based. The settings on record: mean where tested more than once. An excerpt: (§1) CB1 and CB2 receptors are Gi-coupled GPCR. Activation of CB1 and CB2 receptors results in a decrease in cAMP production. An inverse agonist of the CB1 or CB2 receptor results in the opposite effect, an increase of cAMP production. The principle of this assay is based on HTRF® technology (Homogeneous Time-Resolved Fluorescence). The method is a competitive immunoassay between native cAMP produced by cells and the cAMP labeled with the fluorophore d2. The tracer binding is quantified by a Mab anti-cAMP labeled with Eu3+TBP-NHS Cryptate (supplied as part of the assay kit). The specific signal (i.e. energy transfer) is inversely proportional to the concentration of cAMP in the standard or sample.
Chain of Human CB2R (Cannabanoid receptor 2) (P34972 whole entry): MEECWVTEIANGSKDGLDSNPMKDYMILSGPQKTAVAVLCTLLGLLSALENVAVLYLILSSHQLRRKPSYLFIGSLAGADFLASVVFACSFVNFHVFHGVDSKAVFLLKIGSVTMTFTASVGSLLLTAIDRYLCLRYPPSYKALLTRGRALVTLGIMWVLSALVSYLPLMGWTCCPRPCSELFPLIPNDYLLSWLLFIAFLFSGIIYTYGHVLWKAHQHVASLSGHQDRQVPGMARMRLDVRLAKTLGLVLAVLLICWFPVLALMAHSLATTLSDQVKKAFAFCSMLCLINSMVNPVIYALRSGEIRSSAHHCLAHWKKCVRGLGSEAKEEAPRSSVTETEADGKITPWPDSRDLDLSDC
(§2) Human CB1R (Cannabanoid receptor 1) was stably transfected in HEK-293 cells (DiscoveRx, cat: 93-0200C1). Human CB2R (Cannabanoid receptor 2) was stably transfected in HEK-293 cells (DiscoveRx, cat: 93-0201C1). Cell cultures were maintained in media: DMEM (Invitrogen Cat#12430-054) supplemented with 10% HI FBS (Invitrogen Cat#16140-071), 1% L-glutamine (Invitrogen Cat#25030-081), 0.2 mg/ml Hygromycin B (Invitrogen Cat#10687-010), 600 μg/mL G418 (Invitrogen Cat#10131-035), and 1× Penn/Strep (Invitrogen 15140-122). After cell expansion, aliquots were cryo-stored in media containing 5% DMSO (Pierce Cat#20684).
(§3) One day prior to experiments media was warmed to 37° C. and the cryo-stored cells were thawed in a 37° C. water bath. The cells were then added to media (10× volume) and the mixture was centrifugated at 1000 RPM for 5 min. The supernate was removed and the cells were re-suspended in media. A sample of the cell suspension was evaluated on a Cedex XS automated cell counter (Innovatis Systems) to determine viable cells/ml. Additional media was added to the cells to achieve a final cell density of 4E5 cells/mL. The cells were then plated into 384 well PDL white solid bottom plates (Greiner, Cat#781945) at 20 μL per well using a Multidrop (Thermo Scientific). Cells were removed from Row P (location of cAMP standards). Two columns of cells were plated into a clear bottom 384 well PDL coated plate (Greiner, Cat#781944) to view confluence the day of the assay. The cell plates were lidded and stored for 15 minutes in a hood, then transferred to an incubator (37° C., 5% CO2, 95% humidity) overnight.
(§4) DMSO was added to all wells of 384 well V bottom polystyrene plate (Greiner, Cat#781280) except to columns 1 and 13, rows O and P and wells M13-M23 and N13-N23. Test compounds (60 μL, 10 mM) were added to Column 1 and 13 (A1 through N1 and A13 through L13). Test compounds were serially diluted 1/3 by transferring and mixing 20 μl sample with 40 μL DMSO.
(§5) DMSO (40 μL) was added to wells of 384 well V bottom polystyrene plate: O2 through O11, M14 through M23, N14 through N23, and O14 through O23. AM630 (also known as [6-iodo-2-methyl-1-[2-(4-morpholinyl)ethyl]-1H-indol-3-yl](4-methoxyphenyl)-methanone, Cayman Chemical, Cat#10006974) (60 μL, 10 mM) was added to O1; and 1-(2,4-dichlorophenyl)-7-[(4-fluorophenyl)methylene]-4,5,6,7-tetrahydro-N-1-piperidinyl-1H-indazole-3-carboxamide (60 μL, 10 mM) was added to N13. The control was serially diluted 1/3 by transferring and mixing 20 μl sample with 40 μL DMSO. This process resulted 11 doses per control, 10 mM to […].
(§6) Cells plated the day prior to the assay in clear bottom plates were viewed on an inverse microscope to ensure confluency in the range of 60-75%. […]
On the technique in general: Changes in cAMP serve as a functional read-out for many G protein-coupled receptors.

Assay [2] deals with Human CB1R (Cannabanoid receptor 1) (Homo sapiens (Human), UniProt P21554). Kind of assay: CB-1 in vitro cAMP assay (HTRF). The class given is cell-based. The settings on record: mean where tested more than once.
Chain of Human CB1R (Cannabanoid receptor 1) (P21554 whole entry): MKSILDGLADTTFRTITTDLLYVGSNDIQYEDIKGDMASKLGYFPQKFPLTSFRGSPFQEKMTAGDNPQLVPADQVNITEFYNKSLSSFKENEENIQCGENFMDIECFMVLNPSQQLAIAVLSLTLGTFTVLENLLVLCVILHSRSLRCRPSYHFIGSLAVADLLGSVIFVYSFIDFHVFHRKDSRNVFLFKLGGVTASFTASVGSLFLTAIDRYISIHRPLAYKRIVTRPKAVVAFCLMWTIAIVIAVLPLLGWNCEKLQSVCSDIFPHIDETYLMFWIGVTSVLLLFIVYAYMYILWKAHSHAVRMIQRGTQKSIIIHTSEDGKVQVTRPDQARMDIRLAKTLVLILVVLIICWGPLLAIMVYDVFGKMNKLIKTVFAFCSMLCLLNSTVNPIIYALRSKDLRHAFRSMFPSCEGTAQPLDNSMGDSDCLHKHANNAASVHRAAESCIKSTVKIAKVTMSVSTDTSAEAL
Source text: as §1, §2, §3, §4, §5, §6

The term EC50 denotes the concentration at which the effect is half-maximal. Lower therefore signals greater potency. Consider `OC1(c2ccccc2)CCC(Nc2ncnc3ccc(C(c4ccc(Cl)cc4)c4ccc(Cl)cc4)cc23)CC1` (centres unmarked) [Compound #99, 4-((6-(bis(4-chlorophenyl)methyl)quinazolin-4-yl)amino)-1-phenylcyclohexanol], for which the EC50 in assay [1] was 8.49 µM; in assay [2], 0.001 µM.

For `O=C(O)CCOCCOc1nc(NCc2cccc(C(F)(F)F)c2)c2cc(C(c3ccc(Cl)cc3)c3ccc(Cl)cc3)ccc2n1` [Compound #48, 3-(2-((6-(bis(4-chlorophenyl)methyl)-4-((3-(trifluoromethyl)benzyl)amino)quinazolin-2-yl)oxy)ethoxy)propanoic acid], the EC50 in assay [1] was determined as 0.806 µM; in assay [2], 0.067 µM.

With `NC(=O)c1ccc(N2CCC(Nc3ncnc4ccc(C(c5ccc(Cl)cc5)c5ccc(Cl)cc5)cc34)CC2)cc1` [Compound #90, 4-(4-((6-(bis(4-chlorophenyl)methyl)quinazolin-4-yl)amino)piperidin-1-yl)benzamide], the EC50 came to 0.461 µM in assay [1] and 0.034 µM in assay [2].

Regarding `N#Cc1ccc(C(c2ccc(Cl)cc2)c2ccc3ncnc(NC4CCN(S(=O)(=O)C(F)(F)F)CC4)c3c2)cc1` (centres unmarked) [Compound #19, 4-((4-chlorophenyl)(4-((1-((trifluoromethyl)sulfonyl)piperidin-4-yl)amino)quinazolin-6-yl)methyl)benzonitrile], the EC50 in assay [1] stood at 0.157 µM; in assay [2], 0.006 µM.

For the molecule `O=C(O)COc1nc(NCc2cccc(C(F)(F)F)c2)c2cc(C(c3ccc(Cl)cc3)c3ccc(Cl)cc3)ccc2n1` [compound 51, 2-((6-(bis(4-chlorophenyl)methyl)-4-((3-(trifluoromethyl)benzyl)amino)quinazolin-2-yl)oxy)acetic acid], the EC50 in assay [1] is 3.34 µM; in assay [2], 0.583 µM.

With `C[C@H](Nc1ncnc2ccc(C(c3ccc(Cl)cc3)c3ccc(Cl)cc3)cc12)c1cccc(C(F)(F)F)c1` (single isomer, unassigned) [Compound #112], the figures for the EC50 in assay [1] and in assay [2] were 4.7 µM and 0.01 µM, respectively.

In the case of `O=S(=O)(N1CCC(Nc2nc(C3CC3)nc3ccc(C(c4ccc(Cl)cc4)c4ccc(Cl)cc4)cc23)CC1)C(F)(F)F` [Compound #108, 6-(bis(4-chlorophenyl)methyl)-2-cyclopropyl-N-(1-((trifluoromethyl)sulfonyl)piperidin-4-yl)quinazolin-4-amine], the EC50 in assay [1] was over 10 µM; in assay [2] it was 0.008 µM.

As for `FC(F)(F)c1ccc(C2(Nc3ncnc4ccc(C(c5ccc(Cl)cc5)c5ccc(Cl)cc5)cc34)CC2)cc1` [compound 125, 6-(bis(4-chlorophenyl)methyl)-N-(1-(4-(trifluoromethyl)phenyl)cyclopropyl) quinazolin-4-amine], the EC50 in assay [1] came to 5.94 µM; in assay [2], 0.044 µM.

Regarding `Fc1cccc(CNc2ncnc3ccc(C(c4ccc(Cl)cc4)c4ccc(Cl)cc4)cc23)c1` [compound 63, 6-(bis(4-chlorophenyl)methyl)-N-(3-fluorobenzyl)quinazolin-4-amine], the figures for the concentration giving a half-maximal response (EC50) in assay [1] and in assay [2] were 1.2 µM and 0.01 µM, respectively.

As for `FC(F)(F)c1cncc(CNc2ncnc3ccc(C(c4ccc(Cl)cc4)c4ccc(Cl)cc4)cc23)c1` [compound 126, 6-(bis(4-chlorophenyl)methyl)-N-((5-(trifluoromethyl)pyridin-3-yl)methyl)quinazolin-4-amine], the results for the EC50 in assay [1] and in assay [2] were 1.18 µM and 0.025 µM, respectively.

Take `O=C(O)c1ccc(CN2CCC(Nc3ncnc4ccc(C(c5ccc(Cl)cc5)c5ccc(Cl)cc5)cc34)CC2)s1` [compound 34, 5-((4-(6-(bis(4-chlorophenyl)methyl)quinazolin-4-ylamino)piperidin-1-yl)methyl)thiophene-2-carboxylic acid]: the EC50 in assay [1] is over 10 µM; in assay [2] it was 0.176 µM.

On to `FC(F)(F)c1ccc(Nc2ncnc3ccc(C(c4ccc(Cl)cc4)c4ccc(Cl)cc4)cc23)cc1` [Compound #143, 6-(bis(4-chlorophenyl)methyl)-N-(4-(trifluoromethyl)phenyl)quinazolin-4-amine], for which the EC50 in assay [1] is over 10 µM; in assay [2], 0.091 µM.

Regarding `N#Cc1ccc(S(=O)(=O)N2CCC(Nc3ncnc4ccc(C(c5ccc(Cl)cc5)c5ccc(Cl)cc5)cc34)CC2)cc1` [Compound #52, 4-((4-((6-(bis(4-chlorophenyl)methyl)quinazolin-4-yl)amino)piperidin-1-yl)sulfonyl)benzonitrile], the EC50 in assay [1] is over 10 µM; in assay [2], 0.012 µM.

Turning to `COCCOc1nc(NCc2ccc(C(F)(F)F)cc2)c2cc(C(c3ccc(Cl)cc3)c3ccc(Cl)cc3)ccc2n1` [Compound #91, 6-(bis(4-chlorophenyl)methyl)-2-(2-methoxyethoxy)-N-(4-(trifluoromethyl)benzyl)quinazolin-4-amine], the EC50 in assay [1] is over 10 µM; in assay [2], 0.03 µM.

Take `COc1nc(NCc2ccc(C(F)(F)F)cc2)c2cc(C(c3ccc(Cl)cc3)c3ccc(Cl)cc3)ccc2n1` [Compound #85, 6-(bis(4-chlorophenyl)methyl)-2-methoxy-N-(4-(trifluoromethyl)benzyl)quinazolin-4-amine]: the values for the concentration for a half-maximal effect (EC50) in assay [1] and in assay [2] were over 10 µM and 0.01 µM, respectively.

For `COC(=O)c1ccc(C(=O)N2CCC(Nc3ncnc4ccc(C(c5ccc(Cl)cc5)c5ccc(Cl)cc5)cc34)CC2)cc1` [Compound #73, methyl 4-(4-((6-(bis(4-chlorophenyl)methyl)quinazolin-4-yl)amino)piperidine-1-carbonyl)benzoate], the EC50 is 4.43 µM in assay [1] and 0.014 µM in assay [2].

On to `CCOC(=O)COc1ccc(S(=O)(=O)N2CCC(Nc3ncnc4ccc(C(c5ccc(Cl)cc5)c5ccc(Cl)cc5)cc34)CC2)cc1` [Compound #4, Ethyl 2-(4-((4-((6-(bis(4-chlorophenyl)methyl)quinazolin-4-yl)amino)piperidin-1-yl)sulfonyl)phenoxy)acetate], for which the EC50 is 0.17 µM in assay [1] and 0.009 µM in assay [2].

For `Clc1ccc(C(c2ccc(Cl)cc2)c2ccc3ncnc(NC4CCN(c5ncccn5)CC4)c3c2)cc1` [Compound #139, 6-(bis(4-chlorophenyl)methyl)-N-(1-(pyrimidin-2-yl)piperidin-4-yl)quinazolin-4-amine], the EC50 in assay [1] was 0.771 µM; in assay [2], 0.002 µM.

On to `COC(=O)c1ccc(CN2CCC(Nc3ncnc4ccc(C(c5ccc(Cl)cc5)c5ccc(Cl)cc5)cc34)CC2)cc1` [Compound #43, Methyl 4-((4-((6-(bis(4-chlorophenyl)methyl)quinazolin-4-yl)amino)piperidin-1-yl)methyl)benzoate], for which the half-maximal effective concentration (EC50) in assay [1] is over 10 µM; in assay [2], 0.059 µM.

Take `CCOC(=O)CC(=O)N1CCC(Nc2ncnc3ccc(C(c4ccc(Cl)cc4)c4ccc(Cl)cc4)cc23)CC1` [compound 89, ethyl 3-(4-(6-(bis(4-chlorophenyl)methyl)quinazolin-4-ylamino)piperidin-1-yl)-3-oxopropanoate]: the figures for the EC50 in assay [1] and in assay [2] were 1.8 µM and 0.025 µM, respectively.

`COC(=O)c1cccc(CNc2ncnc3ccc(C(c4ccc(Cl)cc4)c4ccc(Cl)cc4)cc23)c1` [Compound #62, Methyl 3-(((6-(bis(4-chlorophenyl)methyl)quinazolin-4-yl)amino)methyl)benzoate]: the EC50 in assay [1] stood at 8.08 µM; in assay [2] it was 0.014 µM.

On to `O=S(=O)(NC1CCN(c2ncnc3ccc(C(c4ccc(Cl)cc4)c4ccc(Cl)cc4)cc23)C1)C(F)(F)F` (centres unmarked) [Compound #9, N-(1-(6-(bis(4-chlorophenyl)methyl)quinazolin-4-yl)pyrrolidin-3-yl)trifluoromethanesulfonamide], for which the results for the EC50 in assay [1] and in assay [2] were 0.15 µM and 0.191 µM, respectively.
